Reference: PubChem BioAssay (NCI)
Values joined by “and” are separate entries in the source; they are usually repeats but may differ in a detail not shown here. Equal values may be shown once.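 These data come from cells grown in 96-well plates and exposed to compound for 48 hours at five concentrations. GI50 marks 50% less growth. TGI is the concentration that stops growth completely.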

What was measured:
Test in all cases: NCI anticancer screen, dose series, 48 h
CAKI-1 renal = test system: CAKI-1 renal
K-562 leukemia = test system: K-562 leukemia
UACC-257 melanoma = test system: UACC-257 melanoma
SNB-75 CNS = test system: SNB-75 CNS
PC-3 prostate = test system: PC-3 prostate
RXF 393 renal = test system: RXF 393 renal
SN12C renal = test system: SN12C renal
SK-MEL-2 melanoma = test system: SK-MEL-2 melanoma
SR leukemia = test system: SR leukemia
HCC-2998 colon = test system: HCC-2998 colon

SMILES	GI50 (CAKI-1 renal)	TGI (CAKI-1 renal)	GI50 (K-562 leukemia)	TGI (K-562 leukemia)	GI50 (UACC-257 melanoma)	TGI (UACC-257 melanoma)	GI50 (SNB-75 CNS)	TGI (SNB-75 CNS)	GI50 (PC-3 prostate)	TGI (PC-3 prostate)	GI50 (RXF 393 renal)	TGI (RXF 393 renal)	GI50 (SN12C renal)	TGI (SN12C renal)	GI50 (SK-MEL-2 melanoma)	TGI (SK-MEL-2 melanoma)	GI50 (SR leukemia)	TGI (SR leukemia)	GI50 (HCC-2998 colon)	TGI (HCC-2998 colon)
COc1cc(CSc2nc3ccc(C)cc3c(=O)n2-c2ccccc2)cc(OC)c1OC	2.79 µM	> 100 µM	0.534 µM	> 100 µM	19.4 µM	> 100 µM	0.328 µM	2.98 µM	3.25 µM	> 100 µM	1.1 µM	> 25.5 µM	4.56 µM	> 100 µM	3.52 µM	> 100 µM	0.409 µM	> 40.8 µM	5.49 µM	> 100 µM
C=C1CCC2C3(C)COC(c4ccc(N(C)C)cc4)OC3CCC2(C)C1C/C=C1/C(=O)OCC1O (stereo unspecified)	2.12 µM	5.66 µM	1.22 µM	3.37 µM	13.1 µM	26.8 µM	1.94 µM	7.97 µM	2.32 µM	9.83 µM	1.97 µM	4.06 µM	2.52 µM	7.98 µM	5.15 µM	13.7 µM	1.15 µM	3.77 µM	7.69 µM	19.8 µM
CC(C)(C)n1cc(-c2ccnc(NCCCNS(=O)(=O)c3ccc(C(F)(F)F)cc3)c2)c(-c2cccc(O)c2)n1	1.99 µM	4.21 µM	2.1 µM	> 100 µM	2.07 µM	4.6 µM	1.94 µM	6.04 µM	1.64 µM	3.72 µM	1.46 µM	2.89 µM	1.61 µM	3.03 µM	2.1 µM	3.95 µM	2.21 µM	10.5 µM	1.82 µM	3.25 µM
O=[N+]([O-])O.[Cu+2].[NH-]CC[NH-].[NH-]CC[NH-]	> 10 µM	> 10 µM	> 10 µM	> 10 µM	> 10 µM	> 10 µM	> 10 µM	> 10 µM	> 10 µM	> 10 µM	> 10 µM	> 10 µM	> 10 µM	> 10 µM	> 10 µM	> 10 µM	> 10 µM	> 10 µM	> 10 µM	> 10 µM
FC(F)(F)c1ccc(Nc2nc(-c3c(C(F)(F)F)nc4ccccn34)cs2)cc1	0.0419 µM	8.2 µM	0.0396 µM	8.18 µM	2.06 µM	8.64 µM	0.0291 µM	1.05 µM	0.0425 µM	8.54 µM	0.0389 µM	0.316 µM	0.297 µM	8.28 µM	0.0734 µM	6.76 µM	0.0402 µM	> 39.4 µM	0.18 µM	9.74 µM
Cc1c(C(N)=O)sc2c1C(=O)N(Cc1ccccc1)C1=NN=C(c3ccc(Cl)cc3)CN12	1.17 µM	10.3 µM	2.97 µM	> 100 µM	3.75 µM	16.5 µM	10.6 µM	23.7 µM	3.84 µM	20.9 µM	2.16 µM	7.71 µM	3.42 µM	15.6 µM	6.1 µM	18.6 µM	3.14 µM	50.7 µM	3.97 µM	17 µM
CN(C)CCN1C(=O)c2ccccc2N(C)c2ccccc21	> 100 µM	> 100 µM	> 100 µM	> 100 µM	> 100 µM	> 100 µM	> 100 µM	> 100 µM	> 100 µM	> 100 µM	> 100 µM	> 100 µM	> 100 µM	> 100 µM	> 100 µM	> 100 µM	> 100 µM	> 100 µM	> 100 µM	> 100 µM
CCN(CC)CCCCNc1c2ccccc2[n+](C)c2c1[nH]c1ccccc12	2.05 µM	14.4 µM	0.379 µM	3.9 µM	0.84 µM	2.4 µM	0.297 µM	1.27 µM	0.355 µM	2.29 µM	0.402 µM	2.16 µM	0.0699 µM	6.08 µM	0.31 µM	0.956 µM	0.373 µM	42.2 µM	0.27 µM	0.763 µM
CN(O)c1nc(N(C)O)nc(N2CCOCC2)n1	1.08 µM	> 100 µM	> 100 µM	> 100 µM	5.57 µM	92.2 µM	27.2 µM	> 100 µM	7.82 µM	> 100 µM	6.15 µM	> 100 µM	7.48 µM	> 100 µM	7.7 µM	> 100 µM	4.01 µM	> 100 µM	8.75 µM	> 100 µM
CC1CCC(NC(=O)N(CCCl)N=O)CC1 (stereo unspecified)	18.9 µM	37.5 µM and 53.2 µM	0.122 µM	28.9 µM and 119 µM	33.5 µM	89.8 µM	27.3 µM	74.4 µM and 66.7 µM	–	96.6 µM	16.7 µM	33.5 µM and 72.9 µM	19.1 µM	41.7 µM and 81.4 µM	20.4 µM	48.1 µM and 91.2 µM	0.832 µM	–	–	93.9 µM
COc1ccc(-c2cc(=O)[nH]c3c(OC)c4ccccc4c(OC)c23)cc1	0.376 µM	> 100 µM	0.346 µM	> 100 µM	–	> 100 µM	0.246 µM	1.68 µM	0.382 µM	> 100 µM	0.409 µM	> 19.9 µM	0.612 µM	> 100 µM	0.486 µM	> 100 µM	0.431 µM	> 100 µM	1.28 µM	> 23.1 µM
Cc1cccc(C)c1NC(=O)C(C#N)C1=C(Cl)C(=O)c2ccccc2C1=O (stereo unspecified)	–	38.1 µM	–	> 36.4 µM	–	21.6 µM	–	29.2 µM	–	28.9 µM	–	> 47.8 µM	–	32 µM	–	29.2 µM	–	> 45.8 µM	–	32.2 µM
COc1c(C)c2c(c(O)c1C/C=C(\C)CCC(=O)O)C(=O)OC2	0.134 µM	14.7 µM	0.123 µM	> 100 µM	0.434 µM	> 100 µM	0.938 µM	> 100 µM	0.61 µM	> 100 µM	0.604 µM	> 100 µM	0.499 µM	> 100 µM	2 µM	> 100 µM	0.158 µM	> 100 µM	0.404 µM	> 100 µM
Cc1cc2c(cc1C)N(C(=O)CCl)CC(=O)N2	1.84 µM	3.52 µM	3.39 µM	29.4 µM	4.83 µM	18.5 µM	3.39 µM	20.8 µM	4.48 µM	18.9 µM	2.46 µM	5.68 µM	3.44 µM	12 µM	4.2 µM	14.4 µM	2.65 µM	7.04 µM	2.88 µM	8.91 µM
